Consider 15 molecules from patent US20240360134A1, “PYRAZOLOPYRIMIDINES AND THEIR USES AS PDGFR INHIBITORS” (priority 2021, published 2024).

Structures are written as SMILES. Read-outs that look alike come from different tables or passages of the source. Some results are limits rather than exact numbers.

Experiment [1] deals with Tb-labeled inactive PDGFRβ (Homo sapiens (Human), UniProt P09619). The experiment in a line: biochemical. The experiment is classed as binding.
For experiment [2], the target named is His6-TEV-PDGFRβ (557-1016) (Homo sapiens (Human), UniProt P09619). The experiment in a line: PDGFRβ HTRF Assay. In kind it is biochemical. Background: In TR-FRET formats the signal depends on donor and acceptor labels being close together.
Sequence of His6-TEV-PDGFRβ (557-1016) (P09619 whole entry, looked up): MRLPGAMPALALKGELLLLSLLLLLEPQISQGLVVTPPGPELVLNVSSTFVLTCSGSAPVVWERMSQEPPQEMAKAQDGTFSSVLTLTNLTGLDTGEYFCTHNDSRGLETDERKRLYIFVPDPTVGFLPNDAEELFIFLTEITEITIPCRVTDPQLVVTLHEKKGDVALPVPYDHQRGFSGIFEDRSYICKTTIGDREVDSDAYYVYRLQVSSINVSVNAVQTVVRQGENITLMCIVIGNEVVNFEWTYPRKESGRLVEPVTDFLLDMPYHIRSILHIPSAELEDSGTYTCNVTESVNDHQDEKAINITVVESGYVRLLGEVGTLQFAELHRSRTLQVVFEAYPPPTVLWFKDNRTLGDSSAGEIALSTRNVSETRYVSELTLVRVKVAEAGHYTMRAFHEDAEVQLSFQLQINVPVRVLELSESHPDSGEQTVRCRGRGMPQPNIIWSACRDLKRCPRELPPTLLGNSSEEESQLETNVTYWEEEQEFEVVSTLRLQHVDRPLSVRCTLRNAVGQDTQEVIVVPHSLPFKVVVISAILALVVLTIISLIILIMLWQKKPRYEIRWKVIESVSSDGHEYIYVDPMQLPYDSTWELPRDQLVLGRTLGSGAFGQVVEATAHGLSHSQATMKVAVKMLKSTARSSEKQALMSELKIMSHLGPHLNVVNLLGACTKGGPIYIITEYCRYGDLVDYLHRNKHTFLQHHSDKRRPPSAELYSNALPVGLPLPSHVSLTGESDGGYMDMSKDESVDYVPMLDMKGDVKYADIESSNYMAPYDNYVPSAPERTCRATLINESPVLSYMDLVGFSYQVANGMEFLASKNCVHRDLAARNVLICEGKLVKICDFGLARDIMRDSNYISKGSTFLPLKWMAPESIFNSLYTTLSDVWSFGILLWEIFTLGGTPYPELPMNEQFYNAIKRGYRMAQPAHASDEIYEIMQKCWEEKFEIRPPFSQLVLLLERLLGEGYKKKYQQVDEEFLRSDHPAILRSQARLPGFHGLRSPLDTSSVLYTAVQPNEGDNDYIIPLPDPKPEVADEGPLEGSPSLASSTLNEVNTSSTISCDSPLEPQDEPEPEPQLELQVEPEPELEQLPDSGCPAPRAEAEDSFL
For the next experiment, the target named is VEGFR2, unphosphorylated (Homo sapiens (Human), UniProt P35968). The experiment in a line: VEGFR ADP GLO assay. The experiment is classed as biochemical. The settings on record: 5 nM VEGFR2, 1.2 mM ATP, 1 mg/mL Srctide, 180 min. Put shortly:
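Unphosphorylated kinase (10 nM 2× solution) pre-incubated 30 min at RT with compounds (11-point, 3-fold, top 10 µM), then reacted 180 min with srctide and ATP (2×: 2 mg/mL, 2.4 mM) in HEPES pH 7.5 buffer. ADP read by luminescence. IC50 from 4-parameter fit, normalized to DMSO and 1 µM TAK-593.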
For orientation: ADP-Glo first removes unused ATP, then detects ADP through luciferase.

Another experiment has as its target PDGFRβ (Rattus norvegicus (Rat), UniProt Q05030). The experiment in a line: PDGFRβ Cellular Assay (PDGFRb P-Y751 HTRF, PDGF-BB stimulated A10 cells). The experiment is classed as cell-based. In a few lines: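 Rat A10 cells plated overnight were treated with compound for 3 h, stimulated with rat PDGF-BB (working stock 100 ng/mL in 10% FBS medium) for 10 min, then lysed.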

[3] abbreviates: 800 μM ATP, 0.5 μM TK-substrate biotin peptide, 30 min pre-incubation, 3 hours reaction, read-out: PDGFR HTRF IC50.
Where [4] appears, read: A10 cells, 3 hours compound, 15 ng/mL PDGFbb for 10 minutes, read-out: PDGFR Cellular IC50.

Sequence of Tb-labeled inactive PDGFRβ (P09619 whole entry, looked up): as above
Sequence of VEGFR2, unphosphorylated (P35968 whole entry, looked up): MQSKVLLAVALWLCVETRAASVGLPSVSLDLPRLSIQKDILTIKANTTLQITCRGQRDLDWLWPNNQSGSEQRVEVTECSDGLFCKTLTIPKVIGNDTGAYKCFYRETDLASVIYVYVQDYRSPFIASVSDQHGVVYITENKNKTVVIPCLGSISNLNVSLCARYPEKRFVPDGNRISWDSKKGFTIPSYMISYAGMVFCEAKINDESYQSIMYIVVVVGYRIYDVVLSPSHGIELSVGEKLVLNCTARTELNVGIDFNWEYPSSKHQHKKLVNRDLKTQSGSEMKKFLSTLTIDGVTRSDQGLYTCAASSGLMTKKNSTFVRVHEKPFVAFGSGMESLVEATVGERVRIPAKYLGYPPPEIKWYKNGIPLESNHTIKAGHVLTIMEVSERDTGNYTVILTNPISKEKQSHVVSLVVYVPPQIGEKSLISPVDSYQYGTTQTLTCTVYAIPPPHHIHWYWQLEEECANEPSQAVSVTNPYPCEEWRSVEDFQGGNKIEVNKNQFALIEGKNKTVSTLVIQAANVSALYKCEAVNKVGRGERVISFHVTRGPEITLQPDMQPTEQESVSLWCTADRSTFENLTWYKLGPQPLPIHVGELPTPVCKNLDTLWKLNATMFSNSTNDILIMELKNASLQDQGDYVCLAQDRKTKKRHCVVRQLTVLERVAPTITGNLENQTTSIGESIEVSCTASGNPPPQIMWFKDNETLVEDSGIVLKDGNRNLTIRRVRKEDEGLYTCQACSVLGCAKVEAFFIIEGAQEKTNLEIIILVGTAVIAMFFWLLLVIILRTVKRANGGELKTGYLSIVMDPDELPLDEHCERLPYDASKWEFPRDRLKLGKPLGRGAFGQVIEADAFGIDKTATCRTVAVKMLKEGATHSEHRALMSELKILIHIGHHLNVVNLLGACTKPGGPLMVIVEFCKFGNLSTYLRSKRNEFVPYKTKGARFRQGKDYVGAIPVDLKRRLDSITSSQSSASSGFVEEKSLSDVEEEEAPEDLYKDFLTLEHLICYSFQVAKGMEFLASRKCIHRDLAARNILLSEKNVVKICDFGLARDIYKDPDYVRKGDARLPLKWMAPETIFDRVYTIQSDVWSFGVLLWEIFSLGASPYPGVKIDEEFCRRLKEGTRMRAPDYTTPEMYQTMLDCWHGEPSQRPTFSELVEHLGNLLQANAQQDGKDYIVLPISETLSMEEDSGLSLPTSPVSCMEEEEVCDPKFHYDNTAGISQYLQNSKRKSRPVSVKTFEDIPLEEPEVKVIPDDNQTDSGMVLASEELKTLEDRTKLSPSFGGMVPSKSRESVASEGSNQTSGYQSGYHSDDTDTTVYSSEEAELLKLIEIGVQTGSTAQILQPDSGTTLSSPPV
Sequence of PDGFRβ (Q05030 whole entry, looked up): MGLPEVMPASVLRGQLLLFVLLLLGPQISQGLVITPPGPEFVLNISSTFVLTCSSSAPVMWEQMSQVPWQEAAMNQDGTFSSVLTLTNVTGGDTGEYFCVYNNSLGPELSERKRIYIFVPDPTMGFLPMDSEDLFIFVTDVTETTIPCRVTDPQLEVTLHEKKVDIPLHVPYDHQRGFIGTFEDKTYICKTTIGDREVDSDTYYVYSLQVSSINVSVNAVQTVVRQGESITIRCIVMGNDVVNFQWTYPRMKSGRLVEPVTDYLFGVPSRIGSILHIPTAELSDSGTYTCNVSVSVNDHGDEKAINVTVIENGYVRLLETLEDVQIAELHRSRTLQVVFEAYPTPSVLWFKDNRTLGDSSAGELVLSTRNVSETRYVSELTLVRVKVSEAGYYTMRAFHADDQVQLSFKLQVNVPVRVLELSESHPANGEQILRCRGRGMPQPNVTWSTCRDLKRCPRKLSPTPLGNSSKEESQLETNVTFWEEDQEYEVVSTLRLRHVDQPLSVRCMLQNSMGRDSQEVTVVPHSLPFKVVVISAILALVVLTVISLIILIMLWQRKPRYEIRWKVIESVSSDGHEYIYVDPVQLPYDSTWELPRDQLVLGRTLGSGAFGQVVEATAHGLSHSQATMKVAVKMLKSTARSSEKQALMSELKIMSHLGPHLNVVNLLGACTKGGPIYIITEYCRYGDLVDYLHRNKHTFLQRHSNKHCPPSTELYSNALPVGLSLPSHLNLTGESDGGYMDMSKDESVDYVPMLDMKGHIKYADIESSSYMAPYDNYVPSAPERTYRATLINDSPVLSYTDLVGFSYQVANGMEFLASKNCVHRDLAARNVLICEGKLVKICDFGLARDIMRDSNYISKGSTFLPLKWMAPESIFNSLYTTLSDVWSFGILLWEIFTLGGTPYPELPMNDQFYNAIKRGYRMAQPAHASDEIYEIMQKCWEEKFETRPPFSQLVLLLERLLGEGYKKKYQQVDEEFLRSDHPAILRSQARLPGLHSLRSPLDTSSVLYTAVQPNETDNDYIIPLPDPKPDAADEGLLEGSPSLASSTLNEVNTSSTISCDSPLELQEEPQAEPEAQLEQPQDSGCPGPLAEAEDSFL

Broadly, the IC50 is the point on the concentration scale where inhibition reaches its midpoint. Regarding `Cc1ncc(C(=O)NCCN2CCCC23CCC3)cc1Nc1nn(C)c2nc(Nc3cncnc3)ncc12` [Example 4, N-(2-(5-azaspiro[3.4]octan-5-yl)ethyl)-6-methyl-5-((1-methyl-6-(pyrimidin-5-ylamino)-1H-pyrazolo[3,4-d]pyrimidin-3-yl)amino)nicotinamide], the IC50 was 3.2 nM in experiment [1] (read-out: PDGFR Lantha IC50); 0.46 nM in experiment [2] (setting [3]); above 7500 nM against VEGFR2, unphosphorylated; 14.5 nM on PDGFRβ (setting [4]).
The matching figures for `Cc1ncc(C(=O)NCCN2CCCC2(C)C)cc1Nc1nn(C)c2nc(Nc3ccc(N)nc3)ncc12` [Example 32, 5-((6-((6-aminopyridin-3-yl)amino)-1-methyl-1H-pyrazolo[3,4-d]pyrimidin-3-yl)amino)-N-(2-(2,2-dimethylpyrrolidin-1-yl)ethyl)-6-methylnicotinamide]: 5.7 nM, 0.54 nM, above 7500 nM and 110 nM.
The matching figures for `Cc1ncc(C(=O)NCCN2CCCC2(C)C)cc1Nc1nn(C)c2cc(Nc3cnn(C)c3)ncc12` [Example 69, N-(2-(2,2-dimethylpyrrolidin-1-yl)ethyl)-6-methyl-5-((1-methyl-6-((1-methyl-1H-pyrazol-4-yl)amino)-1H-pyrazolo[4,3-c]pyridin-3-yl)amino)nicotinamide]: 48.4 nM, 1.27 nM, above 7500 nM and 36.9 nM.
Take `CO[C@H]1CCN(CC(=O)Nc2cnc(C)c(Nc3nn(C)c4nc(Nc5cnn(C)c5)ncc34)c2)C1` [Example 136, (S)-2-(3-methoxypyrrolidin-1-yl)-N-(6-methyl-5-((1-methyl-6-((1-methyl-1H-pyrazol-4-yl)amino)-1H-pyrazolo[3,4-d]pyrimidin-3-yl)amino)pyridin-3-yl)acetamide]: the IC50 in experiment [1] (read-out: PDGFR Lantha IC50) is 3.7 nM; in experiment [2] (setting [3]) it was 0.52 nM; against VEGFR2, unphosphorylated, above 7500 nM; at PDGFRβ (setting [4]) it was 12.2 nM.
The matching figures for `COCCn1cc(Nc2ncc3c(Nc4cc(NC(=O)CN5CCCC5(C)C)cnc4C)nn(C)c3n2)cn1` [Example 125, 2-(2,2-dimethylpyrrolidin-1-yl)-N-(5-((6-((1-(2-methoxyethyl)-1H-pyrazol-4-yl)amino)-1-methyl-1H-pyrazolo[3,4-d]pyrimidin-3-yl)amino)-6-methylpyridin-3-yl)acetamide]: 1.7 nM, 0.34 nM, above 7500 nM and 2.7 nM.
Regarding `Cc1ncc(C(=O)NCCN2CCCC2(C)C)cc1Nc1nn(C)c2nc(Nc3cnn(C)c3C)ncc12` [Example 156, 5-((6-((1,5-dimethyl-1H-pyrazol-4-yl)amino)-1-methyl-1H-pyrazolo[3,4-d]pyrimidin-3-yl)amino)-N-(2-(2,2-dimethylpyrrolidin-1-yl)ethyl)-6-methylnicotinamide], the IC50 was 20.2 nM in experiment [1] (read-out: PDGFR Lantha IC50); 2.15 nM in experiment [2] (setting [3]); above 7500 nM against VEGFR2, unphosphorylated; 19.7 nM at PDGFRβ (setting [4]).
As for `Cc1ncc(C(=O)NCCN2[C@H](C)CCC[C@@H]2C)cc1Nc1nn(C)c2cc(Nc3cnn(C)c3)ncc12` [Example 68, N-(2-((2S,6R)-2,6-dimethylpiperidin-1-yl)ethyl)-6-methyl-5-((1-methyl-6-((1-methyl-1H-pyrazol-4-yl)amino)-1H-pyrazolo[4,3-c]pyridin-3-yl)amino)nicotinamide], the IC50 in experiment [1] is 33.9 nM; in experiment [2], 1.98 nM; against VEGFR2, unphosphorylated, above 7500 nM; at PDGFRβ, 112 nM.
As to `Cc1ncc(C(=O)NCCN2CCCCC23CC3)cc1Nc1nn(C)c2nc(Nc3cncnc3)ncc12` [Example 56, N-(2-(4-azaspiro[2.5]octan-4-yl)ethyl)-6-methyl-5-((1-methyl-6-(pyrimidin-5-ylamino)-1H-pyrazolo[3,4-d]pyrimidin-3-yl)amino)nicotinamide], the IC50 in experiment [1] (read-out: PDGFR Lantha IC50) is 3 nM; in experiment [2] (setting [3]) it was 0.54 nM; at VEGFR2, unphosphorylated it was above 7500 nM; at PDGFRβ (setting [4]), 9.7 nM.
The matching figures for `Cc1ccc(C(=O)NCCN2CCC3(CC3)C2)cc1Nc1nn(C)c2nc(Nc3cnn(C)c3)ncc12` [Example 67, N-(2-(5-azaspiro[2.4]heptan-5-yl)ethyl)-4-methyl-3-((1-methyl-6-((1-methyl-1H-pyrazol-4-yl)amino)-1H-pyrazolo[3,4-d]pyrimidin-3-yl)amino)benzamide]: 1.9 nM, 0.22 nM, 1660 nM and 9.8 nM.
The matching figures for `Cc1ncc(NC(=O)CN2CC(C)(C)C2)cc1Nc1nn(C)c2nc(Nc3cnn(C)c3)ncc12` [Example 77, 2-(3,3-dimethylazetidin-1-yl)-N-(6-methyl-5-((1-methyl-6-((1-methyl-1H-pyrazol-4-yl)amino)-1H-pyrazolo[3,4-d]pyrimidin-3-yl)amino)pyridin-3-yl)acetamide]: 1.9 nM, 0.24 nM, 5110 nM and 2.4 nM.
For `Cc1ccc(C(=O)NCCN2CC(C)(C)C2)cc1Nc1nn(C)c2nc(Nc3cnn(C)c3)ncc12` [Example 64, N-(2-(3,3-dimethylazetidin-1-yl)ethyl)-4-methyl-3-((1-methyl-6-((1-methyl-1H-pyrazol-4-yl)amino)-1H-pyrazolo[3,4-d]pyrimidin-3-yl)amino)benzamide], the IC50 worked out at 2.1 nM in experiment [1] (read-out: PDGFR Lantha IC50); 0.26 nM in experiment [2] (setting [3]); 1030 nM against VEGFR2, unphosphorylated; 8.9 nM on PDGFRβ (setting [4]).
For the molecule `Cc1ncc(C(=O)NCCN2CCCC2(C)C)cc1Nc1nn(C)c2nc(Nc3ccnc(N4CCOCC4)c3)ncc12` [Example 101, N-(2-(2,2-dimethylpyrrolidin-1-yl)ethyl)-6-methyl-5-((1-methyl-6-((2-morpholinopyridin-4-yl)amino)-1H-pyrazolo[3,4-d]pyrimidin-3-yl)amino)nicotinamide], the IC50 is 2.2 nM in experiment [1] (read-out: PDGFR Lantha IC50); 0.38 nM in experiment [2] (setting [3]); above 7500 nM at VEGFR2, unphosphorylated; 15.5 nM on PDGFRβ (setting [4]).
The matching figures for `Cc1nn(C)cc1Nc1ncc2c(Nc3cc(C(=O)NCCN4CCC[C@@H]4C)cnc3C)nn(C)c2n1` [Example 160, (S)-5-((6-((1,3-dimethyl-1H-pyrazol-4-yl)amino)-1-methyl-1H-pyrazolo[3,4-d]pyrimidin-3-yl)amino)-6-methyl-N-(2-(2-methylpyrrolidin-1-yl)ethyl)nicotinamide]: 11.3 nM, 1.55 nM, above 7500 nM and 53.3 nM.
`Cc1ncc(C(=O)NCCC2CCCCC2)cc1Nc1nn(C)c2nc(Nc3ccc(N4CCNCC4)nc3)ncc12` [Example 109, N-(2-cyclohexylethyl)-6-methyl-5-((1-methyl-6-((6-(piperazin-1-yl)pyridin-3-yl)amino)-1H-pyrazolo[3,4-d]pyrimidin-3-yl)amino)nicotinamide]: the IC50 stood at 4 nM in experiment [1] (read-out: PDGFR Lantha IC50); 0.78 nM in experiment [2] (setting [3]); 167 nM on VEGFR2, unphosphorylated; 127 nM on PDGFRβ (setting [4]).
`Cc1ncc(C(=O)NCCN(CCO)C2CCCC2)cc1Nc1nn(C)c2nc(Nc3cnn(C)c3)ncc12` [Example 97, N-(2-(cyclopentyl(2-hydroxyethyl)amino)ethyl)-6-methyl-5-((1-methyl-6-((1-methyl-1H-pyrazol-4-yl)amino)-1H-pyrazolo[3,4-d]pyrimidin-3-yl)amino)nicotinamide]: the half-inhibitory concentration (IC50) in experiment [1] (read-out: PDGFR Lantha IC50) is 2.4 nM; in experiment [2] (setting [3]) it was 0.46 nM; against VEGFR2, unphosphorylated, above 7500 nM; on PDGFRβ (setting [4]), 101 nM.
